Data published in ChEMBL document CHEMBL1130666, “Benzimidazole derivatives as arginine mimetics in 1,4-benzodiazepine nonpeptide vitronectin receptor (alpha v beta 3) antagonists” (Bioorg Med Chem Lett, 1998).

Key:
Integrin alpha-V/beta-3 [1] = target: T1, Integrin alpha-V/beta-3 (Homo sapiens, UniProt P05106+P06756); assay: Binding affinity evaluated against vitronectin receptor (alphaV-beta3) receptor; type: protein-complex assay
Integrin alpha-V/beta-3 [2] = target: T1, Integrin alpha-V/beta-3; assay: Effect against adhesion of HEK 293 cells transfected with human alpha-v beta-3 to vitronectin coated plates; type: functional, cell-based, HEK293
[3] = target: Integrin alpha-IIb/beta-3 (Homo sapiens, UniProt P05106+P08514); assay: Affinity for alphaIIb-beta3 receptor; type: protein-complex assay
Sequence of Integrin alpha-IIb/beta-3 (P05106 27-788 limits assumed): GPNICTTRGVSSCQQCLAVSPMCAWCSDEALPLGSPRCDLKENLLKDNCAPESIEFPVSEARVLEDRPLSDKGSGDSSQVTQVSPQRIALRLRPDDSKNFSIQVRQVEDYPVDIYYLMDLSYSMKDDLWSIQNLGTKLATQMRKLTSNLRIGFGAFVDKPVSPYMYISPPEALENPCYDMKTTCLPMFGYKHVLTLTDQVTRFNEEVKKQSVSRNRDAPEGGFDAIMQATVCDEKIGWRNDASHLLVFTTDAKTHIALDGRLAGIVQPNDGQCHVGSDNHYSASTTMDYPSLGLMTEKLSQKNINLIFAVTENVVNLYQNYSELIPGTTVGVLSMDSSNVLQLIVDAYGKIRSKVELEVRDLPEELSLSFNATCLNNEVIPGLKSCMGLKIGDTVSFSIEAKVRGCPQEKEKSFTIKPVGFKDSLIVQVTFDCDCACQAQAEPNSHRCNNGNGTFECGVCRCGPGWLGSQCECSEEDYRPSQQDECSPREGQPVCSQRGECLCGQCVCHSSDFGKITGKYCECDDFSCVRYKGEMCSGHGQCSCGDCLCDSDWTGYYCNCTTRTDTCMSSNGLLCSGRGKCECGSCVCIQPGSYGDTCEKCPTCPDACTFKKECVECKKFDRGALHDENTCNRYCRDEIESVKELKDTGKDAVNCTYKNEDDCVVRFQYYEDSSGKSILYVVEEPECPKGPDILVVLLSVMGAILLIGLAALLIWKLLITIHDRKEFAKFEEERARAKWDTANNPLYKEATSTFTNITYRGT
Sequence of Integrin alpha-IIb/beta-3 (P08514 32-887 limits assumed): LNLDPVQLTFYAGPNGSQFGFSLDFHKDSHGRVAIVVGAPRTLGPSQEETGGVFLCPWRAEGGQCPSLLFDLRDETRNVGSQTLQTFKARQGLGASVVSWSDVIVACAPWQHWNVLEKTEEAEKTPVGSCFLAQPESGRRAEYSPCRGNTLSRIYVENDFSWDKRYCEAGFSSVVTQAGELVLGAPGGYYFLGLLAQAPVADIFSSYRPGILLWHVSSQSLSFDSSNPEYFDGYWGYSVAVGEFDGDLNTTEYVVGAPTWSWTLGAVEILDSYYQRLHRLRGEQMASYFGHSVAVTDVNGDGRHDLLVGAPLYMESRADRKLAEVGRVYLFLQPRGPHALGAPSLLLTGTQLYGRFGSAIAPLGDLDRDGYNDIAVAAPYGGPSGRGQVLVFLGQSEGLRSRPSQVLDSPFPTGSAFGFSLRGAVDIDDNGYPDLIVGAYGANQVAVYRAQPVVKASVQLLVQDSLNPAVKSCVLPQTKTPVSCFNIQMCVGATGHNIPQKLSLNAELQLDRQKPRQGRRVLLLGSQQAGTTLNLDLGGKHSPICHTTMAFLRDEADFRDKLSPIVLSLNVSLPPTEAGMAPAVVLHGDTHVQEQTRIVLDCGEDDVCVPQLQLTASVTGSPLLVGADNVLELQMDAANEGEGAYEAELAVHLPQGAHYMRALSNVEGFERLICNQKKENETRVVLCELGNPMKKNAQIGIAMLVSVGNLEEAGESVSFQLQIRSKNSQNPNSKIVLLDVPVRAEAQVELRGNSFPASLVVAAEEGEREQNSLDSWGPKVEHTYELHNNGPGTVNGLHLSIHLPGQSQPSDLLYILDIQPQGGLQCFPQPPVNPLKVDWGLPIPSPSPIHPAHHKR
Sequence of Integrin alpha-IIb/beta-3 (P08514 891-1039 limits assumed): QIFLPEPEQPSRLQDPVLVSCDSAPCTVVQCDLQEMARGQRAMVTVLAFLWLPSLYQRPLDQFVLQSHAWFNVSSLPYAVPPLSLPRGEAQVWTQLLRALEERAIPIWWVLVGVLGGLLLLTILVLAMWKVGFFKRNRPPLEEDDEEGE

T1 sequence (P05106 27-788 limits assumed): as the sequence (P05106 27-788 limits assumed) above
T1 sequence (P06756 31-889 limits assumed): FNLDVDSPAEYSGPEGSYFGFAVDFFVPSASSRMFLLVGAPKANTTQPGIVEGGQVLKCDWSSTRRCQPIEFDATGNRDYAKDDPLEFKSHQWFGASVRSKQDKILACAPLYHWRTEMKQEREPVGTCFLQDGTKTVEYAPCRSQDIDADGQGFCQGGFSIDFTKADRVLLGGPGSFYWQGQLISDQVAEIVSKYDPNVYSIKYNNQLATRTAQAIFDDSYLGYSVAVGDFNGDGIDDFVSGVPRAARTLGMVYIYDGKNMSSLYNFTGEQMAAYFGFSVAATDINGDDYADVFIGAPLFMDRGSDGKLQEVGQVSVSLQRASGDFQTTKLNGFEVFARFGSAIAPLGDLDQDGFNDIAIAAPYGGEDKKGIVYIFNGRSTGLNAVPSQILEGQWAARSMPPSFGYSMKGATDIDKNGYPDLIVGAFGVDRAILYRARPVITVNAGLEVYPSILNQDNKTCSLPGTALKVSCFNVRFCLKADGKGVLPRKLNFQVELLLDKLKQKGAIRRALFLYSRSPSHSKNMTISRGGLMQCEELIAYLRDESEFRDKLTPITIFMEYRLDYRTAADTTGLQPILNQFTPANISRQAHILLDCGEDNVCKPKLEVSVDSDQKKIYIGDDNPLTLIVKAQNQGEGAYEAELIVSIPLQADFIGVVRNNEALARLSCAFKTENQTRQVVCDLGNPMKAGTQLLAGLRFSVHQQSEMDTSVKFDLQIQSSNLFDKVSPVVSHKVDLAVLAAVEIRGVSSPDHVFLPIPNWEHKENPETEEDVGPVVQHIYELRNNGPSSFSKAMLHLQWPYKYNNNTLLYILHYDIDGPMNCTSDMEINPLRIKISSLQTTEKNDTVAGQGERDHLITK
T1 sequence (P06756 891-1048 limits assumed): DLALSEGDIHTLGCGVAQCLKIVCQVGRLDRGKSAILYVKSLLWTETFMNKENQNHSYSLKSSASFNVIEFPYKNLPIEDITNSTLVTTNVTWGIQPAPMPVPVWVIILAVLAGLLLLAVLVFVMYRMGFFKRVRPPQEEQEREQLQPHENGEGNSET

Row | Ki (Integrin alpha-V/beta-3 [1]) [nM] | IC50 (Integrin alpha-V/beta-3 [2]) [nM] | Ki [3] [nM] | Structure (SMILES)
1 | 180 |  |  | COc1cc2nc(CN(C)C(=O)c3ccc4c(c3)CN(C)C(=O)[C@H](CC(=O)O)N4)[nH]c2cc1OC
2 | 19 | 900 |  | CN(Cc1nc2ccc(N)cc2[nH]1)C(=O)c1ccc2c(c1)CN(C)C(=O)[C@H](CC(=O)O)N2 (racemic)
3 | 1.6 | 180 |  | CN(Cc1nc2ccccc2[nH]1)C(=O)c1ccc2c(c1)CN(CCC(C)(C)C)C(=O)[C@H](CC(=O)O)N2 (racemic)
4 | 3 | 340 |  | COCCN1Cc2cc(C(=O)N(C)Cc3nc4ccccc4[nH]3)ccc2N[C@@H](CC(=O)O)C1=O (racemic)
5 | 2900 |  | 47000 | CN1Cc2cc(C(=O)NCc3ncc[nH]3)ccc2N[C@@H](CC(=O)O)C1=O (racemic)
6 | 10 | 350 |  | O=C(O)C[C@@H]1Nc2ccc(C(=O)NCc3nc4ccccc4[nH]3)cc2CN(CCc2cccnc2)C1=O
7 | 750 |  |  | CN1Cc2cc(C(=O)N(Cc3nc4ccccc4[nH]3)C3CCCCC3)ccc2N[C@@H](CC(=O)O)C1=O
8 | 5.5 | 810 |  | CN(Cc1nc2c(N)cccc2[nH]1)C(=O)c1ccc2c(c1)CN(C)C(=O)[C@H](CC(=O)O)N2
9 | 27 | 4500 |  | O=C(O)C[C@@H]1Nc2ccc(C(=O)NCc3nc4ccccc4[nH]3)cc2CN(CC(=O)O)C1=O (racemic)
10 | 11 | 900 |  | CN(Cc1nc2cc(Cl)ccc2[nH]1)C(=O)c1ccc2c(c1)CN(C)C(=O)[C@H](CC(=O)O)N2 (racemic)
11 | 2.5 | 540 |  | CN(Cc1nc2cc(F)c(F)cc2[nH]1)C(=O)c1ccc2c(c1)CN(C)C(=O)[C@H](CC(=O)O)N2
12 | 1100 |  | 30000 | CN(Cc1nc2ccccc2o1)C(=O)c1ccc2c(c1)CN(C)C(=O)[C@H](CC(=O)O)N2 (racemic)
13 | 9 | 690 |  | CN(Cc1nc2cc3c(cc2[nH]1)OCO3)C(=O)c1ccc2c(c1)CN(C)C(=O)[C@H](CC(=O)O)N2
14 | 480 |  | 29000 | CN(Cc1nc2ccccc2s1)C(=O)c1ccc2c(c1)CN(C)C(=O)[C@H](CC(=O)O)N2 (racemic)
15 | 2.5 | 480 |  | CN1Cc2cc(C(=O)N(Cc3nc4ccccc4[nH]3)Cc3nc4ccccc4[nH]3)ccc2N[C@@H](CC(=O)O)C1=O
16 | 6.5 | 500 |  | CN(Cc1nc2ccccc2[nH]1)C(=O)c1ccc2c(c1)CNC(=O)[C@H](CC(=O)O)N2
17 | 110 |  | > 50000 | CN1Cc2cc(C(=O)NCc3cc4ccccc4[nH]3)ccc2N[C@@H](CC(=O)O)C1=O (racemic)
18 | 24 | 3600 |  | CN1Cc2cc(C(=O)NCc3nc4ccccc4[nH]3)ccc2N[C@@H](CC(=O)O)C1=O (racemic)
19 | 14 | 3000 |  | CN(Cc1nc2ccc([N+](=O)[O-])cc2[nH]1)C(=O)c1ccc2c(c1)CN(C)C(=O)[C@H](CC(=O)O)N2 (racemic)
20 | 1300 |  |  | COc1ccc(OC)c2[nH]c(CN(C)C(=O)c3ccc4c(c3)CN(C)C(=O)[C@H](CC(=O)O)N4)nc12

Row | Ki (Integrin alpha-V/beta-3 [1]) [nM] | IC50 (Integrin alpha-V/beta-3 [2]) [nM] | Ki [3] [nM] | Structure (SMILES)
21 | 13 | 1100 |  | CN(Cc1nc2c([N+](=O)[O-])cccc2[nH]1)C(=O)c1ccc2c(c1)CN(C)C(=O)[C@H](CC(=O)O)N2
22 | 28 | 3000 |  | COCCN1Cc2cc(C(=O)NCc3nc4ccccc4[nH]3)ccc2N[C@@H](CC(=O)O)C1=O (racemic)
23 | 3.5 | 520 |  | CCCCN(Cc1nc2ccccc2[nH]1)C(=O)c1ccc2c(c1)CN(C)C(=O)[C@H](CC(=O)O)N2
24 | 2 | 480 |  | Cc1cccc2[nH]c(CN(C)C(=O)c3ccc4c(c3)CN(C)C(=O)[C@H](CC(=O)O)N4)nc12
25 | 4 | 810 |  | CN1Cc2cc(C(=O)N(CC#N)Cc3nc4ccccc4[nH]3)ccc2N[C@@H](CC(=O)O)C1=O
26 | 9 | 750 |  | O=C(O)C[C@@H]1Nc2ccc(C(=O)NCc3nc4ccccc4[nH]3)cc2CN(CCc2ccccc2)C1=O (racemic)
27 | 20 | 5100 |  | CC(C)N1Cc2cc(C(=O)NCc3nc4ccccc4[nH]3)ccc2N[C@@H](CC(=O)O)C1=O (racemic)
28 | 70 |  | 28000 | CN(Cc1nc2ccccc2n1C)C(=O)c1ccc2c(c1)CN(C)C(=O)[C@H](CC(=O)O)N2
29 | 6 | 250 |  | CN(Cc1nc2ccccc2[nH]1)C(=O)c1ccc2c(c1)CN(CCc1ccc3c(c1)OCO3)C(=O)[C@H](CC(=O)O)N2 (racemic)
30 | 5 |  | 2750 | CN(Cc1nc2c([nH]1)CCCC2)C(=O)c1ccc2c(c1)CN(C)C(=O)[C@H](CC(=O)O)N2
31 | 6.5 | 670 |  | O=C(O)C[C@@H]1Nc2ccc(C(=O)NCc3nc4ccccc4[nH]3)cc2CN(CCc2ccc3c(c2)OCO3)C1=O (racemic)
32 | 5 | 280 |  | CN1Cc2cc(C(=O)N(CCc3ccccc3)Cc3nc4ccccc4[nH]3)ccc2N[C@@H](CC(=O)O)C1=O
33 | 1.9 | 510 |  | CN(Cc1nc2ccccc2[nH]1)C(=O)c1ccc2c(c1)CN(Cc1ccccc1)C(=O)[C@H](CC(=O)O)N2 (racemic)
34 | 15 | 1500 |  | O=C(O)C[C@@H]1Nc2ccc(C(=O)NCc3nc4ccccc4[nH]3)cc2CN(Cc2ccccc2)C1=O
35 |  | 1650 |  | CN1Cc2cc(C(=O)NCc3nc4ccccc4[nH]3)ccc2N[C@@H](CC(=O)O)C1=O
36 | 15 | 690 |  | CN(Cc1nc2cc(C#N)ccc2[nH]1)C(=O)c1ccc2c(c1)CN(C)C(=O)[C@H](CC(=O)O)N2 (racemic)
37 | 4 | 90 |  | CN(Cc1nc2ccccc2[nH]1)C(=O)c1ccc2c(c1)CN(CCc1ccccc1)C(=O)[C@H](CC(=O)O)N2
38 | 15 | 1400 |  | CC(C)(C)CCN1Cc2cc(C(=O)NCc3nc4ccccc4[nH]3)ccc2N[C@@H](CC(=O)O)C1=O (racemic)
39 | 8.5 | 1000 |  | CN(Cc1nc2ccc(C(F)(F)F)cc2[nH]1)C(=O)c1ccc2c(c1)CN(C)C(=O)[C@H](CC(=O)O)N2
40 | 30 | 5000 |  | O=C(O)C[C@@H]1Nc2ccc(C(=O)NCc3nc4ccccc4[nH]3)cc2CNC1=O
